Measurements from patent US20200390889A1, “REMOTELY TRIGGERED THERAPY” (Bambu Vault LLC, priority 2019, published 2020).

assay: Retention of tetrakis aminium dye during emulsification with different surfactants; type: physicochemical; details: 0.2% surfactant in aqueous phase during emulsification
Method: IR absorbing agent weight ratio=4.4:1). The organic phase (polymer and IR absorbing agents dissolved in dichloromethane) was injected directly into the aqueous phase (PVA solution with SDS surfactant) at the tip of the Turrax's roto-stator (i.e. directly into the flow being sheared by the roto-stator). The shear mixing at 8000 RPM was continued for 30 minutes. The resulting mixture was decanted into an open-mouth container and stirred magnetically for 16 hours. A solid suspension of particles containing IR absorbing agent was obtained. The solid suspension was centrifuged at 5000 RPM for 30 minutes and the particles were collected. The collected particles were washed with distilled water by resuspending the particles into distilled water and centrifuging as before to collect the particles. This washing process was repeated three times to remove residual PVA. The resulting MMA/IA/BMA copolymer particles containing IR absorbing agent were air-dried. In the emulsion method of encapsulation, a surfactant is necessary to help keep the emulsion stable. While Aerosol® TR-70 (sodium bis(tridecyl) sulfosuccinate) could be used as an emulsifier to prepare polymer particles encapsulating Epolight™ 1117 tetrakis aminium dye, TR-70 only provided limited stabilization effects on the tetrakis aminium dye. […] Reducing the amount of SDS in the aqueous phase led to lower Epolight™ 1117 retention and larger particle size (Table 5).

Compound | % Epolight 1117 Retention [%]
CCCCCCCCCCCCOS(=O)(=O)[O-].[Na+] [SDS, sodium dodecyl sulfate] | 74.97

same assay, conditions: 0.4% surfactant in aqueous phase during emulsification

Compound | % Epolight 1117 Retention [%]
CCCCCCCCCCCCOS(=O)(=O)[O-].[Na+] [SDS, sodium dodecyl sulfate] | 80.17

same assay, conditions: 0.6% surfactant in aqueous phase during emulsification

Compound | % Epolight 1117 Retention [%]
CCCCCCCCCCCCCOC(=O)CC(C(=O)OCCCCCCCCCCCCC)S(=O)(=O)O.[Na] (centres unmarked) [TR-70, sodium bis(tridecyl) sulfosuccinate] | 51.70
CCCCCCCCCCCCOS(=O)(=O)[O-].[Na+] [SDS, sodium dodecyl sulfate] | 82.96

same assay, conditions: during the emulsion and evaporation process

Compound | retention of Epolight 1117 in the particles
CCCCCCCCCCCCCOC(=O)CC(C(=O)OCCCCCCCCCCCCC)S(=O)(=O)O.[Na] (centres unmarked) [TR-70, sodium bis(tridecyl) sulfosuccinate] | 50%
CCCCCCCCCCCCOS(=O)(=O)[O-].[Na+] [SDS, sodium dodecyl sulfate] | 85-90%

assay: not given; details: likelihood of association with drug induced liver injury, based upon the known potential of the drug; cited from earlier work

Compound | Likelihood Score
CC(C)C[C@H](NC(=O)CNC(=O)c1cc(Cl)ccc1Cl)B(O)O [Ixazomib] | E*
CNCc1ccc(-c2[nH]c3cc(F)cc4c3c2CCNC4=O)cc1 [Rucaparib] | D*
COc1cc(Nc2ncc(F)c(Nc3ccc4c(n3)N(COP(=O)(O)O)C(=O)C(C)(C)O4)n2)cc(OC)c1OC [Fostamatinib] | E*
COc1cc2c(Nc3ccc(Br)cc3F)ncnc2cc1OCC1CCN(C)CC1 [Vandetanib] | E*
CCS(=O)(=O)N1CC(CC#N)(n2cc(-c3ncnc4[nH]ccc34)cn2)C1 [Baricitinib] | E*
CC(=O)c1c(C)c2cnc(Nc3ccc(N4CCNCC4)cn3)nc2n(C2CCCC2)c1=O [Palbociclib] | E*
CC(C)(C)c1nc(-c2cccc(NS(=O)(=O)c3c(F)cccc3F)c2F)c(-c2ccnc(N)n2)s1 [Dabrafenib] | E*
Cc1ccc(C(=O)Nc2ccc(CN3CCN(C)CC3)c(C(F)(F)F)c2)cc1C#Cc1cnc2cccnn12 [Ponatinib] | E*
COc1cc2ncnc(Nc3ccc(F)c(Cl)c3)c2cc1NC(=O)/C=C/CN1CCCCC1 [Dacomitinib] | E*
NC(=O)c1cccc2cn(-c3ccc([C@@H]4CCCNC4)cc3)nc12 [Niraparib] | E*
N#Cc1ccnc(N2C(=O)CC[C@H]2C(=O)N(c2cncc(F)c2)[C@H](C(=O)NC2CC(F)(F)C2)c2ccccc2Cl)c1 [Ivosidenib] | E*
CCCS(=O)(=O)Nc1ccc(F)c(C(=O)c2c[nH]c3ncc(-c4ccc(Cl)cc4)cc23)c1F [Vemurafenib] | E*
CO[C@@H]1[C@H](N(C)C(=O)c2ccccc2)C[C@H]2O[C@]1(C)n1c3ccccc3c3c4c(c5c6ccccc6n2c5c31)C(=O)NC4 [Midostaurin] | E*
Cc1c(C(=O)Nc2ccc(N3C[C@@H](C)O[C@@H](C)C3)nc2)cccc1-c1ccc(OC(F)(F)F)cc1 [Sonidegib] | E*
O=C(Nc1cnn2ccc(N3CCC[C@@H]3c3cc(F)ccc3F)nc12)N1CC[C@H](O)C1 [Larotrectinib] | E*
CN1CC[C@@H](NC(=O)Nc2ccc(C#N)cc2)C[C@@H]1c1nc2ccccc2[nH]1 [Glasdegib] | E*

Compound | Likelihood Score
C[C@H]1Oc2cc(cnc2N)-c2c(nn(C)c2C#N)CN(C)C(=O)c2ccc(F)cc21 [Lorlatinib] | E*
CCN1CCN(Cc2ccc(Nc3ncc(F)c(-c4cc(F)c5nc(C)n(C(C)C)c5c4)n3)nc2)CC1 [Abemaciclib] | E*
COc1cc(Nc2c(C#N)cnc3cc(OCCCN4CCN(C)CC4)c(OC)cc23)c(Cl)cc1Cl [Bosutinib] | E*
CCc1nc(C(N)=O)c(Nc2ccc(N3CCC(N4CCN(C)CC4)CC3)c(OC)c2)nc1NC1CCOCC1 [Gilteritinib] | E*
COC(=O)c1ccc2c(c1)NC(=O)/C2=C(\Nc1ccc(N(C)C(=O)CN2CCN(C)CC2)cc1)c1ccccc1 [Nintedanib] | E*
COc1cc(N2CCC(N3CCN(C)CC3)CC2)ccc1Nc1ncc(Cl)c(Nc2ccccc2P(C)(C)=O)n1 [Brigatinib] | E*
Cn1ncnc1[C@H]1c2n[nH]c(=O)c3cc(F)cc(c23)N[C@@H]1c1ccc(F)cc1 [Talazoparib] | E*
COC(=O)N[C@@H](C)CNc1nccc(-c2cn(C(C)C)nc2-c2cc(Cl)cc(NS(C)(=O)=O)c2F)n1 [Encorafenib] | E*
CCOc1cc2ncc(C#N)c(Nc3ccc(OCc4ccccn4)c(Cl)c3)c2cc1NC(=O)/C=C/CN(C)C [Neratinib] | E*
CC(C)(O)CNc1nc(Nc2ccnc(C(F)(F)F)c2)nc(-c2cccc(C(F)(F)F)n2)n1 [Enasidenib] | E*
COc1c(OCCCN2CCOCC2)ccc2c1N=C(NC(=O)c1cnc(N)nc1)N1CCN=C21 [Copanlisib] | E*
N#CC[C@H](C1CCCC1)n1cc(-c2ncnc3[nH]ccc23)cn1 [Ruxolitinib] | E*
C[C@H](Nc1ncnc2[nH]cnc12)c1cc2cccc(Cl)c2c(=O)n1-c1ccccc1 [Duvelisib] | E*
COc1cc2nccc(Oc3ccc(NC(=O)C4(C(=O)Nc5ccc(F)cc5)CC4)cc3)c2cc1OC [Cabozantinib] | E*
Cn1cnc2c(F)c(Nc3ccc(Br)cc3F)c(C(=O)NOCCO)cc21 [Binimetinib] | E*

assay: Screening of acrylic polymers and additives for IR absorbing agent stability and retention; type: physicochemical; details: additive within the particles
Method: Various commercially available acrylic polymers were screened for preferred particle performance characteristic such as particle size distribution, IR absorbing agent stability and encapsulation efficiency. […] NeoCryl® B-818, an ethyl acrylate/ethyl methacrylate copolymer, contained a lower hydroxyl value, but was still swellable in low molecular weight alcohols. NeoCryl® B-805, a methyl methacrylate/butyl methacrylate copolymer, had suitably a low hydroxyl value and a high Tg (99° C.) for human body applications.
The loading of IR absorbing agents within the particles is as high as possible without degrading the cohesion of the polymer. The additives that stabilize the IR absorbing agent within the particles have been studied.

Compound | impact on IR absorbing agent stability
Cc1cc(C(C)(C)C)c(O)c(C)c1Cn1c(=O)n(Cc2c(C)cc(C(C)(C)C)c(O)c2C)c(=O)n(Cc2c(C)cc(C(C)(C)C)c(O)c2C)c1=O [Cyanox® 1790, 1,3,5-tris(4-tert-butyl-3-hydroxy-2,6-dimethylbenzyl)-1,3,5-triazine-2,4,6-(1H,3H,5H)-trione] | positive impact
